Test results taken from US4342780A, “Method of depleting endogenous monoamines” (Merrell-Toraude et Cie, priority 1981, dated 1982).

Experiments:
[1] = tested on: dopamine, noradrenaline and serotonin content; experiment: Effect of repeated administration on catecholamine and serotonin content of the mouse brain (Table V); type: in vivo, Male albino mice; conditions: 5 × 100 mg/kg i.p. every 12 hours
Protocol: The following example illustrates the effect of repeated administration of 2-amino-2-fluoromethyl-3(3,4-dihydroxyphenyl)propionic acid in the brain.
Male albino mice (25-30 g) from Charles River, France and dosed i.p. with 100 mg/kg of 2-amino-2-fluoromethyl-3-(3,4-dihydroxyphenyl)propionic acid every 12 hours for 5 doses. Saline solution is used as a control. The mice are sacrificed and the catecholamines, dopamine and noradrenaline, and serotonin (5-hydroxytryptamine) are determined by reverse-phase ion-pair high pressure liquid chromatography using electrochemical detection.

[2] = tested on: catecholamine content (norepinephrine, dopamine); experiment: Catecholamine content in organs of mice after repeated i.p. doses (Table II); type: in vivo, mice (Swiss Albino); conditions: three days, 12 h after 6th dose, vs control
Protocol: (§1) The test animals (e.g. mice or rats) are given the test compound in a suitable vehicle, either orally or by injection, each day over the period of time desired. The animals are kept on a constant time cycle, and body weights are measured daily. The animals are sacrificed by decapitation 12 to 24 hours after receiving the last dose of the test compound. Control animals receive the vehicle alone.
(§2) Immediately after death, the organs (brain, heart, and kidney) are removed and homogenized either in 50 ml phosphate buffer pH 6.8 for AADC determination or in ice-cold 0.4 M HClO4 containing 0.05% (w/v) EDTA and 0.1% (w/v) sodium bisulfite for catecholamine determination. AADC activity is determined by the ^14 CO2 trapping method of J. Christenson, supra (see Example 14) using DL-[1-^14 C]-dopa as the substrate. Catecholamines are determined by centrifuging the homogenate, adding the supernatant to alumina buffered to pH 8.0-8.4 to adsorb the catecholamines, re-extracting the catecholamines from the alumina with 0.2 M HClO4 and determining the catecholamines in the extracts using known procedures, such as by reversed-phase ion-pair HPLC with electrochemical detection.
(§3) Table II, shown below, sets forth the results obtained by testing particular compounds of Formula I in the above-described procedure in mice (Swiss Albino) after i.p. administration of the compound twice daily for three days: […]

[3] = tested on: AADC; experiment: Ex vivo AADC activity in organs of mice after repeated i.p. doses (Table II); parameters: species or system mice (Swiss Albino); conditions: three days, 12 h after 6th dose, vs control
Protocol: as §1, §2, §3

[4] = tested on: catecholamine content (norepinephrine, dopamine); experiment: Catecholamine content in organs of rats after oral administration once daily for 15 days (Table III); type: in vivo, rats (Sprague-Dawley); conditions: 24 h after 15th dose, vs control; for % CHANGE Brain Dopamine: * not significant
Protocol: as §1, §2
Table III gives the results obtained by testing particular compounds of Formula I in rats (Sprague-Dawley) after oral administration of the test compound once daily for 15 days. AADC activity was not determined.

[5] = tested on: catecholamine levels (dopamine, noradrenaline); experiment: Effect of dopamine injection on catecholamine levels in heart and brain of mice treated with test compound (Table VI); type: in vivo, Male albino mice; conditions: ± SEM, n = 5; for Heart Dopamine: control 20 ± 2; for Brain Noradrenaline: control 516 ± 24; for Heart Noradrenaline: control 760 ± 87; for Brain Dopamine: control 1183 ± 28
Protocol: Saline solution is used as a control. The mice are sacrificed and the catecholamines, dopamine and noradrenaline, and serotonin (5-hydroxytryptamine) are determined by reverse-phase ion-pair high pressure liquid chromatography using electrochemical detection. […] Twelve hours after the second dose, one group of animals received an i.p. injection of 50 mg/kg of dopamine-HCl (Sigma, Chem. Co), the other group received saline instead. Three hours after the dopamine injection, the animals were killed and catecholamines were measured in heart and brain as described in Example 18.

[6] = tested on: dopamine, noradrenalin and 5-hydroxytryptamine content; experiment: Effect on catecholamines and 5-HT in brain regions of the rat 24 hours post-dose (Table IV); type: in vivo, Male Sprague-Dawley rats; conditions: 100 mg/kg i.p., ± S.E.M.
Protocol: The following example illustrates the effect of 2-amino-2-fluoromethyl-3-(3,4-dihydroxyphenyl)propionic acid on catecholamines and 5-HT in the brain.
Male Sprague-Dawley rats (200-300 g) from Charles River, France are housed in groups having free access to food and water. The animals are maintained on a 12 hour light-dark cycle at an ambient temperature of 23° C. The compound 2-amino-2-fluoromethyl-3-(3,4-dihydroxyphenyl)propionic acid is dissolved in 0.9% saline solution and administered as a single dose of 100 mg/kg, i.p. The animals are sacrificed 24 hours later and the brain is dissected on a chilled glass plate into six regions: the striatum, hypothalmus, olfactory tubercles, frontal cortex, cerebellum and brain stem. The tissues are weighed and homogenized in 600 microliters of ice-cold 0.4 Normal HClO4 reagent. The homogenate is centrifuged and dopamine, noradrenalin and 5-hydroxytryptamine are determined by reversed-phase ion-pair high pressure liquid chromatography using electrochemical detection.

[7] = 5 mg/kg oral once daily 15 days
[8] = 10 mg/kg oral once daily 15 days
[9] = 15 mg/kg oral once daily 15 days
[10] = 20 mg/kg oral once daily 15 days
[11] = 2 × 100 mg/kg test compound + dopamine 50 mg/kg i.p., * marked
[12] = 2 × 100 mg/kg test compound + saline, * marked

NC(CF)(Cc1ccc(O)c(O)c1)C(=O)O (stereo not drawn) [3,4-diOH-phenyl, 2-Amino-2-fluoromethyl-3-(3,4-dihydroxyphenyl)propionic acid]
% Reduction Dopamine (brain) ([1]; vs saline): -97%
% Reduction Noradrenaline (brain) ([1]; vs saline): -94%
% Reduction Serotonin (brain) ([1]; vs saline): -83%
Noradrenaline content of the brain ([1]; ± S.E.M., saline 310 ± 15): 19.6 ± 3 ng/g
Dopamine content of the brain ([1]; ± S.E.M., saline 722 ± 47): 18.6 ± 2 ng/g
Serotonin content of the brain ([1]; ± S.E.M., saline 1685 ± 29): 282 ± 25 ng/g
% CHANGE NOREPINEPHRINE Brain ([2]; 10 mg/kg i.p. twice daily, * not significant): -55%
% CHANGE NOREPINEPHRINE Heart ([2]; 10 mg/kg i.p. twice daily, * not significant (-25*, -7*)): -39%
% CHANGE DOPAMINE Brain ([2]; 10 mg/kg i.p. twice daily, * not significant (-25*, -9*)): 0%
% CHANGE NOREPINEPHRINE Brain ([2]; 100 mg/kg i.p. twice daily): -80%
% CHANGE NOREPINEPHRINE Heart ([2]; 100 mg/kg i.p. twice daily): -80%
% CHANGE DOPAMINE Brain ([2]; 100 mg/kg i.p. twice daily, * not significant (-35*)): -80%
% CHANGE AADC Brain ([3]; 10 mg/kg i.p. twice daily): -86%
% CHANGE AADC Kidney ([3]; 10 mg/kg i.p. twice daily): -95%
% CHANGE AADC Brain ([3]; 100 mg/kg i.p. twice daily): -99%
% CHANGE AADC Kidney ([3]; 100 mg/kg i.p. twice daily): -99%
% CHANGE Brain Norepinephrine [4, 7]: -25%
% CHANGE Heart Norepinephrine [4, 7]: -56%
% CHANGE Brain Dopamine [4, 7]: -2%
% CHANGE Brain Norepinephrine [4, 8]: -47%
% CHANGE Heart Norepinephrine [4, 8]: -67%
% CHANGE Brain Dopamine [4, 8]: -8%
% CHANGE Brain Norepinephrine [4, 9]: -51%
% CHANGE Heart Norepinephrine [4, 9]: -68%
% CHANGE Brain Dopamine [4, 9]: -6%
% CHANGE Brain Norepinephrine [4, 10]: -49%
% CHANGE Heart Norepinephrine [4, 10]: -72%
% CHANGE Brain Dopamine [4, 10]: -10%
Heart Dopamine [5, 11]: 429 ± 39 ng/g
Brain Noradrenaline [5, 11]: 42 ± 4 ng/g
Heart Noradrenaline ([5]; 2 × 100 mg/kg test compound + dopamine 50 mg/kg i.p.): 882 ± 47 ng/g
Brain Dopamine [5, 11]: 92 ± 8 ng/g
Heart Dopamine ([5]; 2 × 100 mg/kg test compound + saline): 98 ± 62 ng/g
Brain Noradrenaline [5, 12]: 44 ± 6 ng/g
Heart Noradrenaline [5, 12]: 173 ± 24 ng/g
Brain Dopamine [5, 12]: 47 ± 5 ng/g
5-Hydroxytriptamine, Cerebellum ([6]; control 30 ± 3, p < 0.01): 11 ± 3 ng/g
Dopamine, Brain Stem ([6]; control 37 ± 9): 13 ± 4 ng/g
Noradrenaline, Striatum ([6]; control 47 ± 13): 46 ± 24 ng/g
Noradrenaline, Cerebellum ([6]; control 137 ± 1, p < 0.001): 17 ± 3 ng/g
Noradrenaline, Olfactory Tubercles ([6]; control 360 ± 32, p < 0.01): 126 ± 29 ng/g
5-Hydroxytriptamine, Frontal Cortex ([6]; control 365 ± 23, p < 0.001): 19 ± 7 ng/g
Dopamine, Hypothalamus ([6]; control 399 ± 23): 280 ± 69 ng/g
Noradrenaline, Brain Stem ([6]; control 439 ± 47, p < 0.01): 143 ± 9 ng/g
5-Hydroxytriptamine, Striatum ([6]; control 591 ± 47, p < 0.001): 50 ± 16 ng/g
5-Hydroxytriptamine, Brain Stem ([6]; control 620 ± 35, p < 0.01): 136 ± 50 ng/g
5-Hydroxytriptamine, Olfactory Tubercles ([6]; control 699 ± 72, p < 0.01): 87 ± 31 ng/g
5-Hydroxytriptamine, Hypothalamus ([6]; control 1162 ± 306, p < 0.05): 199 ± 44 ng/g
Noradrenaline, Hypothalamus ([6]; control 1419 ± 107, p < 0.01): 631 ± 37 ng/g
Dopamine, Olfactory Tubercles ([6]; control 1954 ± 62, p < 0.001): 403 ± 44 ng/g
Dopamine, Striatum ([6]; control 7342 ± 357, p < 0.001): 1466 ± 156 ng/g
